The text below walks through data of patent US12037324B2, “Biarylmethyl heterocycles” (Université de Montréal, priority 2016, dated 2024).

Some results are limits rather than exact numbers.

The target in test [1] is T1, AGTR1 (Homo sapiens, UniProt P30556).
T1 construct: host or cells: Pathunter CHO-K1 AGTR1 β-arrestin cell line (CHO-K1)
T1 sequence (P30556 1-359): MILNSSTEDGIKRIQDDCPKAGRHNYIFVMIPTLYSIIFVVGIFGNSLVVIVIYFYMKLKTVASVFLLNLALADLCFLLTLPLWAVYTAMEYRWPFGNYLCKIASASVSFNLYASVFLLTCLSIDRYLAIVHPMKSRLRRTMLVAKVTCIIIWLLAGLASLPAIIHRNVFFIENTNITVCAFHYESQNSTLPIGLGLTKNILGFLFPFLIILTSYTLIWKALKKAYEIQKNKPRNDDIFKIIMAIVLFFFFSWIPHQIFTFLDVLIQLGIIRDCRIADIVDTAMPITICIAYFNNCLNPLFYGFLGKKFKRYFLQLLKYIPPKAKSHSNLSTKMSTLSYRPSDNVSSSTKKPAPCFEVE
Put plainly: DiscoveRx β-arrestin2 recruitment assay (enzyme complementation, Pathunter CHO-K1 AGTR1 β-arrestin cell line). It counts as cell-based. Particulars: DiscoveRx β-arrestin2 recruitment; for DiscoveRx β-arrestin2 Ymax (%): maximal response. The gist of the method: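 CHO-K1 cells expressing AGTR1 with β-arrestin2 enzyme-complementation reporter, plated 14-16 h ahead in 1% serum medium, then exposed to compounds for 90 min at 37° C. Chemiluminescence read after 1 h detection. EC50 (agonist) or IC50 (antagonist) from 4-parameter logistic fit; activity as percentage of All maximal effect.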
On the technique in general: Arrestin recruitment assays detect the binding of arrestin to an activated receptor.

The target of test [2] is T2, hAT1R (Homo sapiens, UniProt P30556).
T2 sequence (P30556 1-359): T1 sequence (P30556 1-359)
The test can be described thus: cell-based. To be noted: agonist mode; for EC50: read-out: BRET P63 EC50. For orientation: BRET reads energy transfer from a luciferase to a nearby fluorophore.

The target of test [3] is T2, hAT1R. Put plainly: BRET Gq biosensor assay, agonist response, HEK293 cells. Particulars: section of the 42nd table directly before the BRET P63 section. The class given is cell-based. The gist of the method: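 HEK293 cells co-transfected with signal-peptide-optimized hAT1R plus Gαq-Rluc, Gβ1 and GFP-Gγ1, assayed 48 h later in Tyrode's buffer pH 7.4. Coelenterazine (2 μM final) added, then compound; BRET2 (515/410 nm) read after 5 min at room temperature. EC50 by 4-parameter fit, normalized to unstimulated (0%) and maximal AngII (100%).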

Test [4] addresses T2, hAT1R. The test can be described thus: BRET β-arrestin2 biosensor assay, higher receptor expression (hAT1R 5 ng/well), HEK293 cells. The class given is cell-based. Particulars: for EC50: High AT1R Expression.
Test [5] deals with T2, hAT1R. Put plainly: cell-based. To be noted: section of the 42nd table ending at r951, example numbering restarts after the DiscoveRx section; read-out: β-arrestin2 EC50.

Consider `CCOc1nc2cccc(C(=O)O)c2n1Cc1ccc(-c2cc(-c3ccccc3)ccc2C(=O)O)cc1` [Example 314, 1-((6′-carboxy-[1,1′:3′,1″-terphenyl]-4-yl)methyl)-2-ethoxy-1H-benzo[d]imidazole-7-carboxylic acid], for which the 50% effective concentration (EC50) was 3.5 nM in test [1]; 67.8 nM in test [2]; 129 nM in test [3]; 5.8 nM in test [4]; 36.6 nM in test [5]. Further, in test [1], the “DiscoveRx β-arrestin2 Ymax (%)” value turned out to be 66.8%. The “BRET P63 Ymax” value in test [2] turned out to be 12.8%. For the same compound, the “BRET β-Arrestin2 High AT1R Expression Ymax (%)” value in test [4] came out at 90.3%.
Take `CCCCc1nc(Cl)c(C(=O)O)n1Cc1ccc(-c2cc(-c3ccccc3)ccc2-c2noc(=O)[nH]2)cc1` [Example 404, 2-butyl-4-chloro-1-((6′-(5-oxo-4,5-dihydro-1,2,4-oxadiazol-3-yl)-[1,1′:3′,1″-terphenyl]-4-yl)methyl)-1H-imidazole-5-carboxylic acid]: the concentration giving a half-maximal response (EC50) in test [1] was 9.6 nM; in test [2] it was above 10000 nM; in test [3], 70.4 nM; in test [4], 14.3 nM; in test [5], 69.4 nM. In test [1], the “DiscoveRx β-arrestin2 Ymax (%)” value is listed as 38.6%. Moreover, the “BRET β-Arrestin2 High AT1R Expression Ymax (%)” value in test [4] is 89.7%.
Regarding `CCOc1nc2cccc(C(=O)O)c2n1Cc1ccc(-c2cc(-c3ccccc3)ccc2-c2noc(=O)[nH]2)cc1` [Example 311, 2-ethoxy-1-((6′-(5-oxo-4,5-dihydro-1,2,4-oxadiazol-3-yl)-[1,1′:3′,1″-terphenyl]-4-yl)methyl)-1H-benzo[d]imidazole-7-carboxylic acid], the EC50 in test [1] worked out at 3.9 nM; in test [2], 3.6 nM; in test [3] it was 18.1 nM; in test [4] it was 1.5 nM; in test [5] it was 4.2 nM. In addition, the “DiscoveRx β-arrestin2 Ymax (%)” value in test [1] was determined as 77.6%. In addition, the “BRET P63 Ymax” value in test [2] came out at 13.2%. For the same compound, in test [4], the “BRET β-Arrestin2 High AT1R Expression Ymax (%)” value was determined as 92.0%.
Regarding `CCOc1nc2cccc(C(=O)O)c2n1Cc1ccc(-c2cc(-c3ccccc3)ccc2-c2nn[nH]n2)cc1` [Example 312, 1-((6′-(2H-tetrazol-5-yl)-[1,1′:3′,1″-terphenyl]-4-yl)methyl)-2-ethoxy-1H-benzo[d]imidazole-7-carboxylic acid], the EC50 was determined as 22.5 nM in test [1]; 17.2 nM in test [2]; 20.7 nM in test [3]; 2.6 nM in test [4]; 5.8 nM in test [5]. Further, the “DiscoveRx β-arrestin2 Ymax (%)” value in test [1] amounted to 79.9%. Also, in test [2], the “BRET P63 Ymax” value is recorded as 9.4%. Moreover, the “BRET β-Arrestin2 High AT1R Expression Ymax (%)” value in test [4] came out at 91.8%.
`CCCCc1nc(Cl)c(C(=O)O)n1Cc1ccc(-c2cc(-c3c[nH]c4ccccc34)ccc2-c2nn[nH]n2)cc1` [Example 391]: the EC50 was 45.8 nM in test [1]; above 100000 nM in test [2]; 181 nM in test [3]; 11.7 nM in test [4]; 11 nM in test [5]. The “DiscoveRx β-arrestin2 Ymax (%)” value in test [1] is 23.3%. The “BRET β-Arrestin2 High AT1R Expression Ymax (%)” value in test [4] came out at 78.3%.
With `CCCCc1nc(Cl)c(C(=O)O)n1Cc1ccc(-c2cc(-c3ccccc3)ccc2C(=O)O)cc1` [Example 410, 2-butyl-1-((6′-carboxy-[1,1′:3′,1″-terphenyl]-4-yl)methyl)-4-chloro-1H-imidazole-5-carboxylic acid], the 50% effective concentration (EC50) in test [1] was 26.9 nM; in test [2], above 10000 nM; in test [3], above 100000 nM; in test [4], 82.1 nM; in test [5] it was 98.2 nM. The “DiscoveRx β-arrestin2 Ymax (%)” value in test [1] worked out at 41.9%. Further, in test [4], the “BRET β-Arrestin2 High AT1R Expression Ymax (%)” value turned out to be 69.7%.
On to `CCCCc1nc(Cl)c(C(=O)O)n1Cc1ccc(-c2cc(-c3ccc(C(=O)N(C)C)cc3)ccc2-c2nn[nH]n2)cc1` [Example 390], for which the EC50 is 11.8 nM in test [1]; 127 nM in test [2]; 23.7 nM in test [3]; 24.4 nM in test [4]; 97 nM in test [5]. For the same compound, in test [1], the “DiscoveRx β-arrestin2 Ymax (%)” value was found to be 53.5%. Besides, the “BRET P63 Ymax” value in test [2] turned out to be 11.9%. Moreover, the “BRET β-Arrestin2 High AT1R Expression Ymax (%)” value in test [4] was determined as 95.3%.
`CCCc1nc(CC)c(C(=O)O)n1Cc1ccc(-c2cc(-c3ccccc3)ccc2-c2nn[nH]n2)cc1` [Example 396, 1-((6′-(2H-tetrazol-5-yl)-[1,1′:3′,1″-terphenyl]-4-yl)methyl)-4-ethyl-2-propyl-1H-imidazole-5-carboxylic acid]: the EC50 was 5 nM in test [1]; above 100000 nM in test [2]; 274 nM in test [3]; 6.4 nM in test [4]; 14.1 nM in test [5]. Besides, the “DiscoveRx β-arrestin2 Ymax (%)” value in test [1] amounted to 57.8%. Besides, the “BRET β-Arrestin2 High AT1R Expression Ymax (%)” value in test [4] was 88.8%.
Regarding `CCOc1nc2cccc(C(=O)O)c2n1Cc1ccc(-c2cc(-c3cnn(C(F)F)c3)ccc2-c2nn[nH]n2)cc1` [Example 327, 1-((5′-(1-(difluoromethyl)-1H-pyrazol-4-yl)-2′-(2H-tetrazol-5-yl)-[1,1′-biphenyl]-4-yl)methyl)-2-ethoxy-1H-benzo[d]imidazole-7-carboxylic acid], the EC50 in test [1] is 9.4 nM; in test [2], 26.9 nM; in test [3], 22.1 nM; in test [5], 33 nM. The “DiscoveRx β-arrestin2 Ymax (%)” value in test [1] was found to be 64.2%. Also, in test [2], the “BRET P63 Ymax” value is on record as 10.8%.
In the case of `CCCc1nc(CC)c(C(=O)O)n1Cc1ccc(-c2cc(-c3ccccc3)ccc2-c2nn[nH]n2)c(C)c1` [Example 425], the EC50 in test [1] was 27.3 nM; in test [2], above 10000 nM; in test [3], 105 nM; in test [5] it was 47.4 nM. In addition, the “DiscoveRx β-arrestin2 Ymax (%)” value in test [1] is listed as 54.2%.
As to `CCc1nc2c(C)cc(C)nc2n1Cc1ccc(-c2cc(-c3ccccc3)ccc2-c2nn[nH]n2)c(F)c1` [Example 265], the EC50 in test [1] was 30.1 nM; in test [2], 7 nM; in test [3] it was 29.2 nM; in test [5], 18.9 nM. In addition, in test [1], the “DiscoveRx β-arrestin2 Ymax (%)” value is listed as 53.4%. Also, the “BRET P63 Ymax” value in test [2] amounted to 17.9%.
On to `CCOc1nc2cccc(C(=O)O)c2n1Cc1ccc(-c2cc(-c3cc(OC(F)F)ccn3)ccc2-c2noc(=O)[nH]2)cc1` [Example 302], for which the EC50 turned out to be 10.2 nM in test [1], 10.2 nM in test [2], 47.3 nM in test [3] and 14.9 nM in test [5]. For the same compound, the “DiscoveRx β-arrestin2 Ymax (%)” value in test [1] was 61.1%. The “BRET P63 Ymax” value in test [2] turned out to be 25.2%.
Take `CCOc1nc2cccc(C(=O)O)c2n1Cc1ccc(-c2cc(Oc3cccc(OC)c3)ccc2-c2nn[nH]n2)cc1` [Example 332]: the EC50 was 24.1 nM in test [1], above 10000 nM in test [2], 106 nM in test [3] and 12.1 nM in test [5]. Also, the “DiscoveRx β-arrestin2 Ymax (%)” value in test [1] stood at 30.6%.
On to `CCOc1nc2cccc(C(=O)O)c2n1Cc1ccc(-c2cc(-c3ccccn3)ccc2-c2noc(=O)[nH]2)cc1` [Example 303], for which the EC50 in test [1] is 42.3 nM; in test [2] it was 49.7 nM; in test [3], 109 nM; in test [5], 38.2 nM. Moreover, the “DiscoveRx β-arrestin2 Ymax (%)” value in test [1] is given as 58.9%. The “BRET P63 Ymax” value in test [2] came out at 30.4%.
`CCOc1nc2cccc(C(=O)O)c2n1Cc1ccc(-c2cc(Oc3cccnc3)ccc2-c2nn[nH]n2)cc1` [Example 333]: the EC50 in test [1] is 10 nM; in test [2], above 10000 nM; in test [3], 17.8 nM; in test [5] it was 11.3 nM. For the same compound, the “DiscoveRx β-arrestin2 Ymax (%)” value in test [1] is on record as 67.8%.

A word on the EC50: it is the concentration that produces a half-maximal response.
